Reference: ChEMBL document CHEMBL1146817, “Quinoxaline N,N'-dioxide derivatives and related compounds as growth inhibitors of Trypanosoma cruzi. Structure-activity relationships” (Bioorg Med Chem Lett, 2004)
Calls of active or inactive are those of the source. The rule behind the calls is not given here.

Key:
Type in all cases: functional
[1] = system: Trypanosoma cruzi; assay: In vitro inhibitory dose against epimastigote form of Trypanosoma cruzi Tulahuen strain; conditions: read-out: ID50 (the source's name)
[2] = system: Trypanosoma cruzi; assay: In vitro inhibitory dose against epimastigote form of Trypanosoma cruzi Brener strain; conditions: read-out: ID50 (the source's name)
[3] = system: Trypanosoma cruzi; assay: In vitro percent inhibition of growth against epimastigote form of Trypanosoma cruzi (Tulahuen strain) at 25 uM
[4] = target: T1, Glutathione reductase, mitochondrial (Homo sapiens) (UniProt P00390); assay: In vitro inhibition against human glutathione reductase; IA denotes inactive
T1 sequence (whole entry): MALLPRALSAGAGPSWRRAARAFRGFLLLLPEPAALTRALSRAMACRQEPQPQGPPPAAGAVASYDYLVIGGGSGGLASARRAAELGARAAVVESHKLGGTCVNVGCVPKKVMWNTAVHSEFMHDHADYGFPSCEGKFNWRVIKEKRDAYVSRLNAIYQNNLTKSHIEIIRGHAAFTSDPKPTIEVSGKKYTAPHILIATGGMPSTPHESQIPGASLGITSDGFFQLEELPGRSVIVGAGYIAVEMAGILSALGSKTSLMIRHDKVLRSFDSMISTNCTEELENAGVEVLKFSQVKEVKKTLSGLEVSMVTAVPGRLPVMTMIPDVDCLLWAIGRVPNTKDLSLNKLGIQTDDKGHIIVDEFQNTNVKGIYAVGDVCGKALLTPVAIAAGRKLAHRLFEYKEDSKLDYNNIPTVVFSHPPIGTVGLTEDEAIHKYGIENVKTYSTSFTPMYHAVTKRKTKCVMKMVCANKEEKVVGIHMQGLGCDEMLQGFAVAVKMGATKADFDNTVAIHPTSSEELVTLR

| SMILES | PGI [3] | further results |
| --- | --- | --- |
| CC1CS(=O)(=O)CCN1/N=C/c1ccc([N+](=O)[O-])o1 (stereo not drawn) [NIFURTIMOX] |  | IC50 [1]: 7.7 µM; IC50 [2]: 3.4 µM |
| Cc1cc2c(cc1C(=O)N1CCN(c3ccccc3)CC1)[n+]([O-])c1cc(Cl)c(Cl)cc1[n+]2[O-] | 47% |  |
| N#Cc1cc2c(cc1N)[n+]([O-])c1ccccc1[n+]2[O-] | 25% |  |
| CC(=O)c1cc2c(cc1C)[n+]([O-])c1cc(Cl)ccc1[n+]2[O-] | 51% |  |
| CN(C)CCCNc1cc2c(cc1C#N)[n+]([O-])c1cc(Cl)ccc1[n+]2[O-] | 16% |  |
| Cc1cc2nc3cc(Cl)c(C#N)cc3nc2cc1C | 81% | IC50 [1]: 19.6 µM; IC50 [2]: 3 µM |
| Cc1cc2c(cc1Sc1ccccc1)[n+]([O-])c1cc(Cl)c(Cl)cc1[n+]2[O-] | 93% | IC50 [1]: 6.5 µM; IC50 [2]: 4.5 µM |
| COC(=O)N/N=C/c1ccc2c(c1)[n+]([O-])c1cc(C)c(C)cc1[n+]2[O-] | 28% |  |
| N#Cc1cc2c(cc1N)[n+]([O-])c1ccc(/C=N/NC(=O)NCCc3ccccc3)cc1[n+]2[O-] | 11% |  |
| Nc1nc(N)c2nc3ccccc3nc2n1 | 0% |  |
| N#Cc1cc2nc3cc(Cl)ccc3nc2cc1Cl | 100% | IC50 [1]: 4.5 µM; IC50 [2]: 3 µM |
| N#Cc1cc2c(cc1N1CCN(Cc3ccc4c(c3)OCO4)CC1)[n+]([O-])c1ccc(Cl)cc1[n+]2[O-] | 33% |  |
| COc1ccccc1N1CCN(c2cc3c(cc2C#N)[n+]([O-])c2cc(Cl)ccc2[n+]3[O-])CC1 | 100% | IC50 [1]: 6.5 µM; IC50 [2]: 9.5 µM |
| Cc1ccc(Nc2cc3c(cc2C#N)[n+]([O-])c2cc(Cl)ccc2[n+]3[O-])cc1 | 19% |  |
| Cc1ccc2nc3cc(N)c(C#N)cc3nc2c1 | 0% |  |
| Cc1cc2c(cc1C)[n+]([O-])c1cc(NCCCN(C)C)c(C#N)cc1[n+]2[O-] | 1% |  |
| Cc1cc2c(cc1C)[n+]([O-])c1cc(C(=O)N3CCN(c4ccccc4)CC3)c(C)cc1[n+]2[O-] | 0% |  |
| N#Cc1cc2c(cc1N1CCN(c3cccc(C(F)(F)F)c3)CC1)[n+]([O-])c1ccc(Cl)cc1[n+]2[O-] | 94% | IC50 [1]: 6.7 µM; IC50 [2]: 7 µM |

| SMILES | PGI [3] | further results |
| --- | --- | --- |
| COCCNC(=O)N/N=C/c1ccc2c(c1)[n+]([O-])c1cc(C#N)c(N)cc1[n+]2[O-] | 20% |  |
| Cc1ccc2c(c1)[n+]([O-])c1cc(C#N)c(N)cc1[n+]2[O-] | 5% |  |
| Cc1cc2c(cc1C)[n+]([O-])c1cc(C(=O)N3CCN(c4ccc([N+](=O)[O-])cc4)CC3)c(C)cc1[n+]2[O-] | 1% |  |
| COc1cc2c(cc1Cl)[n+]([O-])c1cc(N3CCN(c4ccc([N+](=O)[O-])cc4)CC3)c(C#N)cc1[n+]2[O-] | 6% |  |
| N#Cc1cc2c(cc1Nc1ccccc1)[n+]([O-])c1ccc(Cl)cc1[n+]2[O-] | 63% |  |
| Cc1cc2c(cc1C(=O)c1ccccc1)[n+]([O-])c1cc(Cl)c(Cl)cc1[n+]2[O-] | 91% | IC50 [1]: 11.8 µM; IC50 [2]: 12.5 µM |
| COc1ccc2c(c1)[n+]([O-])c1cc(C#N)c(N)cc1[n+]2[O-] | 25% |  |
| N#Cc1cc2c(cc1N1CCN(c3ccc([N+](=O)[O-])cc3)CC1)[n+]([O-])c1ccc(Cl)cc1[n+]2[O-] | 3% |  |
| N#Cc1cc2c(cc1N)[n+]([O-])c1cc(Cl)c(Cl)cc1[n+]2[O-] | 25% |  |
| c1ccc(CNc2nc(NCc3ccccc3)c3nc4ccccc4nc3n2)cc1 | 31% |  |
| Cc1cc2c(cc1C)[n+]([O-])c1cc(N3CCN(c4ccc([N+](=O)[O-])cc4)CC3)c(C#N)cc1[n+]2[O-] | 0% |  |
| CCN(CC)CCCC(C)Nc1c2ccc(Cl)cc2nc2ccc(OC)cc12 (stereo not drawn) |  | inhibition [4]: inactive |
| CC(=O)c1cc2c(cc1C)[n+]([O-])c1cc(F)ccc1[n+]2[O-] | 22% |  |
| Cc1cc2c(cc1C)[n+]([O-])c1cc(/C=N/NC(=O)NCCc3ccccc3)ccc1[n+]2[O-] | 17% |  |
| COc1ccc2c(c1)[n+]([O-])c1cc(C#N)c(N3CCN(c4ccc([N+](=O)[O-])cc4)CC3)cc1[n+]2[O-] | 19% |  |
| COc1ccc2[nH]c3nnc(N)c-3nc2c1 | 0% |  |
| COC(=O)N/N=C/c1ccc2c(c1)[n+]([O-])c1cc(C#N)c(N)cc1[n+]2[O-] | 19% |  |
